Measured values as given in ChEMBL document CHEMBL4316588, “Design, Synthesis, and Biological Evaluation of Novel DNA Gyrase-Inhibiting Spiropyrimidinetriones as Potent Antibiotics for Treatment of Infections Caused by Multidrug-Resistant Gram-Positive Bacteria” (J Med Chem, 2019).
pIC50: −log10 of the molar value. Converted amounts (≈) assume the structure as drawn.

How the values were obtained:
[1] = molecular target: DNA topoisomerase 2-alpha (Homo sapiens, UniProt P11388); assay: Inhibition of human topoisomerase-2alpha using catenated DNA as substrate after 30 mins by ethidium bromide-based gel electrophoresis
Chain of DNA topoisomerase 2-alpha (P11388 whole entry): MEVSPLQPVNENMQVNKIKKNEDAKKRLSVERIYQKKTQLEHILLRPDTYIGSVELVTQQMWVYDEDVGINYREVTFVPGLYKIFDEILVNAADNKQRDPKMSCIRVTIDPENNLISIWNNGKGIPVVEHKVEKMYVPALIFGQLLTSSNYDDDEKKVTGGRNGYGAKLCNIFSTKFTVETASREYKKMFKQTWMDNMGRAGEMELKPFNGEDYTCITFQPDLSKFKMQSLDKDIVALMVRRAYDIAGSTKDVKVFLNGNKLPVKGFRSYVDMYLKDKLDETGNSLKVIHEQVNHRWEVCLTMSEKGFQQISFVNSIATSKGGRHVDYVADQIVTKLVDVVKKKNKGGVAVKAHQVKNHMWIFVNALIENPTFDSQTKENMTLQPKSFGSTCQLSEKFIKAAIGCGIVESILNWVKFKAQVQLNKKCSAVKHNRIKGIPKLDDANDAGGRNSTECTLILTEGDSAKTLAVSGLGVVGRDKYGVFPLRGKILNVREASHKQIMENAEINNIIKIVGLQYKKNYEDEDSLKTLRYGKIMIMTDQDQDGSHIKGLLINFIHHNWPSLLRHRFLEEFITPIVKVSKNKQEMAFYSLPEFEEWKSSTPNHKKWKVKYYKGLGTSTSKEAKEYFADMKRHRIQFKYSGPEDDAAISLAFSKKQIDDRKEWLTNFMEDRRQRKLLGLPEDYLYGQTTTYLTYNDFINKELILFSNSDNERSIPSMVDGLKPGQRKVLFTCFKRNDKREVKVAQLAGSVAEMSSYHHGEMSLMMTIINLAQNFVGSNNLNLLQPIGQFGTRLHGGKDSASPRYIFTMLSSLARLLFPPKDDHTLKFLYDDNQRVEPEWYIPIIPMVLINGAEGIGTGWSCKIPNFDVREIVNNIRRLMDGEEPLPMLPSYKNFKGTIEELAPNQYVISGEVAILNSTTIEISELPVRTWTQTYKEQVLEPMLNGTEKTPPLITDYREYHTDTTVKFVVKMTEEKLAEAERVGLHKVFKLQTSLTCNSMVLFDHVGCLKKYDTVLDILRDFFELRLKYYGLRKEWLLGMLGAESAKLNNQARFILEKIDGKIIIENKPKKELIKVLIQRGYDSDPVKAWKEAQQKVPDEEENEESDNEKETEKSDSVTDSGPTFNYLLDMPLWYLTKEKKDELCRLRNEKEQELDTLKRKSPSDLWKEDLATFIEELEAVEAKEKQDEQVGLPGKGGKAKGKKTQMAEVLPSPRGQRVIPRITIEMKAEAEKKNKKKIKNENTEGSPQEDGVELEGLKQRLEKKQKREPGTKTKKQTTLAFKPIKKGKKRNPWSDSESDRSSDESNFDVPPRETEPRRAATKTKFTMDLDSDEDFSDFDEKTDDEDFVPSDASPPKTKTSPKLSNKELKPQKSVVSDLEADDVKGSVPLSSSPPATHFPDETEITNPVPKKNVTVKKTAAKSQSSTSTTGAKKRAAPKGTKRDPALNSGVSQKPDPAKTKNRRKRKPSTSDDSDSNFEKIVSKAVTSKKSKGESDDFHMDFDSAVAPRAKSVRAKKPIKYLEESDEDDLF

[2] = molecular target: Voltage-gated inwardly rectifying potassium channel KCNH2 (Homo sapiens, UniProt Q12809); assay: Inhibition of human ERG expressed in CHO cells in at -80 mV holding potential by automated Qpatch clamp assay; type: cell-based
Chain of Voltage-gated inwardly rectifying potassium channel KCNH2 (Q12809 whole entry): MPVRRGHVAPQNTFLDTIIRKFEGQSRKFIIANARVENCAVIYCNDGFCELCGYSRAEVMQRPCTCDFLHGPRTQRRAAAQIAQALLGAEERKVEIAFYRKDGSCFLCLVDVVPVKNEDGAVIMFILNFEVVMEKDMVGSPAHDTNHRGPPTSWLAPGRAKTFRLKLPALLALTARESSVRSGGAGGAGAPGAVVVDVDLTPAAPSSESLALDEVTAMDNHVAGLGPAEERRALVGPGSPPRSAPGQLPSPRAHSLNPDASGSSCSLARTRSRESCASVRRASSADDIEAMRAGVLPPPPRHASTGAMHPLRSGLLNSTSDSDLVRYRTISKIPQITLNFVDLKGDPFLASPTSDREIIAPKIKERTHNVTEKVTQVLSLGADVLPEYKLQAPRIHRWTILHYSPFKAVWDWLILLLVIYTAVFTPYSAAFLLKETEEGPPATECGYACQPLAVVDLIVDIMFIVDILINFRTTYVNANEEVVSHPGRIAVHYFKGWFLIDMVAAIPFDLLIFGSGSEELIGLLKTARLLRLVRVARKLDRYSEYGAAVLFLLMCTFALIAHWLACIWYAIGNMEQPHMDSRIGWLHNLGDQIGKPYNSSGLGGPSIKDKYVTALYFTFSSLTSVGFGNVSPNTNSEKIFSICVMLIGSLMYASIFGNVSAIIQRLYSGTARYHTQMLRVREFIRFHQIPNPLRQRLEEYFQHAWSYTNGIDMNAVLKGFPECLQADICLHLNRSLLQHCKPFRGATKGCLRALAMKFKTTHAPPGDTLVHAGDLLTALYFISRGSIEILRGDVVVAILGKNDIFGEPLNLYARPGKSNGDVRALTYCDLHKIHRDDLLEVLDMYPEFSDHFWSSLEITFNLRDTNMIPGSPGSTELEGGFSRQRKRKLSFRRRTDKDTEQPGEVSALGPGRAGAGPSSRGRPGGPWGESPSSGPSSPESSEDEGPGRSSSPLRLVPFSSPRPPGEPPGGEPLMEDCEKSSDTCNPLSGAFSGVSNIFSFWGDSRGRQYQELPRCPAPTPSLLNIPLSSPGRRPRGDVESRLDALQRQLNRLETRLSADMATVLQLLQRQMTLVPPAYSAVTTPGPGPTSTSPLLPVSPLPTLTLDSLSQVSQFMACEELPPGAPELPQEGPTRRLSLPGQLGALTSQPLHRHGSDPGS

[3] = AUCt in Sprague-Dawley rat at 100 mg/kg, po by LC-MS/MS analysis; type: ADME, organism-based; conditions: in vivo
[4] = Solubility of the compound in pH 1.2 gastric juice incubated at 37 degC for 24 hrs by LC/MS/MS analysis; type: physicochemical
[5] = Solubility of the compound in water incubated at 37 degC for 24 hrs by LC/MS/MS analysis; type: physicochemical
[6] = Solubility of the compound in pH 6.8 intestinal juice incubated at 37 degC for 24 hrs by LC/MS/MS analysis; type: physicochemical
[7] = AUCt in CD1 mouse at 10 mg/kg, po by LC-MS/MS analysis; type: ADME, organism-based; conditions: in vivo
[8] = MRT in CD1 mouse at 10 mg/kg, po by LC-MS/MS analysis; type: ADME, organism-based; conditions: in vivo
Staphylococcus aureus [9] = assay: Antibacterial activity against methicillin-sensitive Staphylococcus aureus infected in Kunming mouse dosed subcutaneously at 0.5 and 4.0 hrs postinfection and measured at 7 to 14 days post treatment by Bliss method; type: functional; conditions: sc
[10] = Elimination half life in Sprague-Dawley rat at 100 mg/kg, po by LC-MS/MS analysis; type: ADME, organism-based; conditions: in vivo, read-out: beta t1/2 (converted)
Streptococcus pneumoniae = assay: Antibacterial activity against penicillin-resistant Streptococcus pneumoniae after 18 to 20 hrs by CLSI-protocol based broth microdilution method; type: functional
Streptococcus pyogenes = assay: Antibacterial activity against Streptococcus pyogenes after 18 to 20 hrs by CLSI-protocol based broth microdilution method; type: functional; conditions: Streptococcus pyogenes; read-out: MIC
[11] = Cmax in CD1 mouse at 10 mg/kg, po by LC-MS/MS analysis; type: ADME, organism-based; set-up: dose 10 mg/kg, route oral; conditions: in vivo
Neisseria gonorrhoeae = assay: Antibacterial activity against Neisseria gonorrhoeae after 18 to 20 hrs by CLSI-protocol based agar microdilution method; type: functional
[12] = Tmax in CD1 mouse at 10 mg/kg, po by LC-MS/MS analysis; type: ADME, organism-based; conditions: in vivo
[13] = Elimination half life in CD1 mouse at 10 mg/kg, po by LC-MS/MS analysis; type: ADME, organism-based; conditions: in vivo, read-out: beta t1/2 (converted)
DNA gyrase = DNA gyrase (Staphylococcus aureus, UniProt P0A0K8+P20831)
Chain of DNA gyrase (P0A0K8 whole entry): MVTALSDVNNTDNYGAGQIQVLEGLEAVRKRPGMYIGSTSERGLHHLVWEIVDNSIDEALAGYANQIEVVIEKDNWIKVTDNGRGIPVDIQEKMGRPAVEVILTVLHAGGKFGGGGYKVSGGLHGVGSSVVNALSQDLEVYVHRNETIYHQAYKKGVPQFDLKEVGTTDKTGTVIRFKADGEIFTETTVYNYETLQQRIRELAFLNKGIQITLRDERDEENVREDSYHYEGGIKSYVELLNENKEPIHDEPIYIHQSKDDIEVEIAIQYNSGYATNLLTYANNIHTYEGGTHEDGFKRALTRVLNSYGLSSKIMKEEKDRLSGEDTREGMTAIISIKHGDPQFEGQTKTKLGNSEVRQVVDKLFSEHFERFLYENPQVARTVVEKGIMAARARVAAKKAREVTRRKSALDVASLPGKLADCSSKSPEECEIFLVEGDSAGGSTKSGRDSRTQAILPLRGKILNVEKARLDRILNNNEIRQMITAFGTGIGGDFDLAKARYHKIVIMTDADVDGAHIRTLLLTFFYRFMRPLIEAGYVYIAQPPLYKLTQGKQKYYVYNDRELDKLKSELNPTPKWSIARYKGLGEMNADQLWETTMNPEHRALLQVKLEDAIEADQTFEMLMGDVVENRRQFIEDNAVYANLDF
Chain of DNA gyrase (P20831 whole entry): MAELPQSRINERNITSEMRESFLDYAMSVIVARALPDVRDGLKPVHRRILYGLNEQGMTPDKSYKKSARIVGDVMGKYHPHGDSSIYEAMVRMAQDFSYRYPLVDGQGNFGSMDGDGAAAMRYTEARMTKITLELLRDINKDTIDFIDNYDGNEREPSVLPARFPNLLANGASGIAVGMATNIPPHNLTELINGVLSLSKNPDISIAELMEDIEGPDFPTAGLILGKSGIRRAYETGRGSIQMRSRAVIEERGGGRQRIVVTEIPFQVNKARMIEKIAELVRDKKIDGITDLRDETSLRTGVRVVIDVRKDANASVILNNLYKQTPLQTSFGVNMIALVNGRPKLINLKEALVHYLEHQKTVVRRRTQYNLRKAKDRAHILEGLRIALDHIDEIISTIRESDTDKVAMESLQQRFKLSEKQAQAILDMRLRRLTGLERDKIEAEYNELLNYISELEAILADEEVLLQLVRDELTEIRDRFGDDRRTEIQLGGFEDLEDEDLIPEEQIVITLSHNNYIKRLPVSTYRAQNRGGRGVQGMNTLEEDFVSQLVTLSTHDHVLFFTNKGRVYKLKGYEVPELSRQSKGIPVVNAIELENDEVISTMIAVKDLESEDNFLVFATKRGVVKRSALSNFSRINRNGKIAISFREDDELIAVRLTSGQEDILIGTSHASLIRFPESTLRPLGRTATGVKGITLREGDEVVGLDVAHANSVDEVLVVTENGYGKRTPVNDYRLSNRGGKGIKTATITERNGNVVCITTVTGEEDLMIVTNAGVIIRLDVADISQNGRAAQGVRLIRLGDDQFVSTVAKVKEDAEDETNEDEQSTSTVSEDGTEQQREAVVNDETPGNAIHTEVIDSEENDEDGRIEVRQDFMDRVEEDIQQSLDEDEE
Description: Inhibition of Staphylococcus aureus DNA gyrase supercoiling activity using relaxed pHOT-1 DNA as substrate after 60 mins by ethidium bromide-based gel electrophoresis

[14] = test system: Staphylococcus epidermidis; assay: Antibacterial activity against methicillin-resistant Staphylococcus epidermidis after 18 to 20 hrs by CLSI-protocol based broth microdilution method; type: functional
[15] = Oral bioavailability in Sprague-Dawley rat at 100 mg/kg by LC-MS/MS analysis; type: ADME, organism-based; conditions: in vivo
[16] = test system: Staphylococcus epidermidis; assay: Antibacterial activity against methicillin-sensitive Staphylococcus epidermidis after 18 to 20 hrs by CLSI-protocol based broth microdilution method; type: functional
Staphylococcus aureus [17] = assay: Antibacterial activity against methicillin-resistant Staphylococcus aureus infected in Kunming mouse dosed subcutaneously at 0.5 and 4.0 hrs postinfection and measured at 7 to 14 days post treatment by Bliss method; type: functional; conditions: sc
Staphylococcus aureus [18] = assay: Antibacterial activity against methicillin-sensitive Staphylococcus aureus after 18 to 20 hrs by CLSI-protocol based broth microdilution method; type: functional; conditions: Staphylococcus aureus; read-out: MIC
Staphylococcus aureus [19] = assay: Antibacterial activity against methicillin-resistant Staphylococcus aureus after 18 to 20 hrs by CLSI-protocol based broth microdilution method; type: functional

## COc1cccc2c1C(=O)c1c(O)c3c(c(O)c1C2=O)C[C@@](O)(C(=O)CO)C[C@@H]3O[C@H]1C[C@H](N)[C@H](O)[C@H](C)O1 [DOXORUBICIN]
[1]
  pIC50: 6.22

## C[C@@H]1CN2c3c(cc4c(N5C[C@H](C)SC5=O)noc4c3F)CC3(C(=O)NC(=O)NC3=O)[C@H]2[C@H](C)O1
[2]
  pIC50: < 4.40
[3]
  AUC(0-t): 452 µg·h/mL
[4]
  solubility at 24 h: 9.4 µM (≈ 4.73 µg/mL)
[1]
  pIC50: < 3.70
[5]
  solubility at 24 h: 10.2 µM (≈ 5.14 µg/mL)
[6]
  solubility at 24 h: 11.3 µM (≈ 5.69 µg/mL)
[7]
  AUC(0-t): 22500 ng·h/mL
[8]
  MRT: 11.4 h
Staphylococcus aureus [9]
  ED50: 9.59 mg/kg
[10]
  half-life: 518 min
Streptococcus pneumoniae
  MIC: < 0.03 µg/mL
Streptococcus pyogenes
  MIC: < 0.03 µg/mL
[11]
  Cmax: 2080 ng/mL
Neisseria gonorrhoeae
  MIC50: 0.06 µg/mL (≈ 0.119 µM)
  MIC90: 0.125 µg/mL (≈ 0.248 µM)
[12]
  Tmax: 79.8 min
[13]
  half-life: 461 min
DNA gyrase
  pIC50: 4.90
[14]
  MIC: < 0.03 µg/mL
[15]
  bioavailability: 52.7%
[16]
  MIC: < 0.03 µg/mL

## CC(=O)NC[C@H]1CN(c2ccc(N3CCOCC3)c(F)c2)C(=O)O1 [LINEZOLID]
Staphylococcus aureus [9]
  ED50: 4.53 mg/kg
Staphylococcus aureus [17]
  ED50: 4.83 mg/kg

## C[C@@H]1CN2c3c(cc4c(N5CCSC5=O)noc4c3F)CC3(C(=O)NC(=O)NC3=O)[C@H]2[C@H](C)O1
[2]
  pIC50: < 4.40
Staphylococcus aureus [18]
  MIC: ≤ 0.03 µg/mL
Streptococcus pneumoniae
  MIC: ≤ 0.03 µg/mL
Streptococcus pyogenes
  MIC: < 0.03 µg/mL
Neisseria gonorrhoeae
  MIC50: 0.03 µg/mL (≈ 0.0613 µM)
  MIC90: 0.06 µg/mL (≈ 0.123 µM)
Staphylococcus aureus [19]
  MIC: < 0.03 µg/mL
[14]
  MIC: < 0.03 µg/mL
[16]
  MIC: < 0.03 µg/mL

## C[C@@H]1CN2c3c(cc4c(N5C(=O)SC[C@@H]5C)noc4c3F)CC3(C(=O)NC(=O)NC3=O)[C@H]2[C@H](C)O1
Staphylococcus aureus [18]
  MIC: 0.25 to 0.5 µg/mL (≈ 0.497 to 0.993 µM)
[1]
  pIC50: < 3.70
Streptococcus pneumoniae
  MIC: 0.125 to 1 µg/mL (≈ 0.248 to 1.99 µM)
Streptococcus pyogenes
  MIC: 0.125 to 0.25 µg/mL (≈ 0.248 to 0.497 µM)
Staphylococcus aureus [19]
  MIC: 0.03 to 0.125 µg/mL (≈ 0.0596 to 0.248 µM)
DNA gyrase
  pIC50: 4.81
[14]
  MIC: 0.06 to 0.25 µg/mL (≈ 0.119 to 0.497 µM)
[16]
  MIC: 0.03 to 0.125 µg/mL (≈ 0.0596 to 0.248 µM)

## CC[C@H]1CN(c2noc3c(F)c4c(cc23)CC2(C(=O)NC(=O)NC2=O)[C@H]2[C@H](C)O[C@H](C)CN42)C(=O)S1
Staphylococcus aureus [18]
  MIC: < 0.03 µg/mL
[1]
  pIC50: 3.89
Streptococcus pyogenes
  MIC: < 0.03 µg/mL
Staphylococcus aureus [19]
  MIC: < 0.03 µg/mL
DNA gyrase
  pIC50: 5.04
[14]
  MIC: < 0.03 µg/mL

## C[C@@H]1CN2c3c(cc4c(N5CC6(CCC6)OC5=O)noc4c3F)CC3(C(=O)NC(=O)NC3=O)[C@H]2[C@H](C)O1
Staphylococcus aureus [18]
  MIC: 0.125 to 0.25 µg/mL (≈ 0.243 to 0.487 µM)
[1]
  pIC50: < 3.70
Streptococcus pneumoniae
  MIC: 0.25 to 1 µg/mL (≈ 0.487 to 1.95 µM)
Streptococcus pyogenes
  MIC: 0.25 to 0.5 µg/mL (≈ 0.487 to 0.974 µM)
Staphylococcus aureus [19]
  MIC: 0.06 to 1 µg/mL (≈ 0.117 to 1.95 µM)
DNA gyrase
  pIC50: 4.81
[14]
  MIC: 0.03 to 0.25 µg/mL (≈ 0.0584 to 0.487 µM)
[16]
  MIC: 0.06 to 0.25 µg/mL (≈ 0.117 to 0.487 µM)

## COC[C@H]1CN(c2noc3c(F)c4c(cc23)CC2(C(=O)NC(=O)NC2=O)[C@H]2[C@H](C)O[C@H](C)CN42)C(=O)S1
[2]
  pIC50: < 4.40
Staphylococcus aureus [18]
  MIC: 0.03 to 0.25 µg/mL (≈ 0.0562 to 0.469 µM)
[1]
  pIC50: < 3.70
Streptococcus pyogenes
  MIC: 0.25 to 0.5 µg/mL (≈ 0.469 to 0.937 µM)
Neisseria gonorrhoeae
  MIC50: 0.25 µg/mL (≈ 0.469 µM)
  MIC90: 0.5 µg/mL (≈ 0.937 µM)
[12]
  Tmax: 34.8 min
Staphylococcus aureus [19]
  MIC: 0.03 to 0.5 µg/mL (≈ 0.0562 to 0.937 µM)
DNA gyrase
  pIC50: 5.03
[14]
  MIC: < 0.03 µg/mL
[16]
  MIC: 0.03 to 0.125 µg/mL (≈ 0.0562 to 0.234 µM)

## C[C@@H]1CN2c3c(cc4c(N5C(=O)SCC56CC6)noc4c3F)CC3(C(=O)NC(=O)NC3=O)[C@H]2[C@H](C)O1
Staphylococcus aureus [18]
  MIC: 2 to 4 µg/mL (≈ 3.88 to 7.76 µM)
Streptococcus pneumoniae
  MIC: 1 to 2 µg/mL (≈ 1.94 to 3.88 µM)
Streptococcus pyogenes
  MIC: 4 µg/mL (≈ 7.76 µM)
Staphylococcus aureus [19]
  MIC: 0.5 to 8 µg/mL (≈ 0.97 to 15.5 µM)
[14]
  MIC: 2 to 4 µg/mL (≈ 3.88 to 7.76 µM)
[16]
  MIC: 1 to 4 µg/mL (≈ 1.94 to 7.76 µM)

## C[C@@H]1CN2c3c(cc4c(N5C[C@@H](C)SC5=O)noc4c3F)CC3(C(=O)NC(=O)NC3=O)[C@H]2[C@H](C)O1
[2]
  pIC50: < 4.40
[1]
  pIC50: < 3.70
Streptococcus pneumoniae
  MIC: ≤ 0.03 µg/mL
Streptococcus pyogenes
  MIC: < 0.03 µg/mL
Neisseria gonorrhoeae
  MIC50: 0.03 µg/mL (≈ 0.0596 µM)
  MIC90: 0.125 µg/mL (≈ 0.248 µM)
[12]
  Tmax: 34.8 min
Staphylococcus aureus [19]
  MIC: 0.03 to 0.25 µg/mL (≈ 0.0596 to 0.497 µM)
DNA gyrase
  pIC50: 4.82
[14]
  MIC: 0.03 to 0.06 µg/mL (≈ 0.0596 to 0.119 µM)
